Columns and labels:
VCAM-1 = assay: Inhibitory effect on TNF-α-induced expression of VCAM-1 in HUVECs; assay type: cell-based; details: Homo sapiens, HUVEC; HUVECs, TNF-α 20 U/ml, 5 hr; read-out: Inhibitory effect (IC50) on CAM-1 expression
Procedure: Inhibitory effect on expression of VCAM-1 and ELAM-1 in human umbilical vein-derived endothelial cells (HUVECs)
HUVECs were suspended in 199 medium containing 20% FCS, 20 μg/ml endothelial cell growth factor derived from bovine brain, and 100 μg/ml heparin, plated into 96-well microculture plates coated with collagen, and cultured at 37° C. in 5% CO2. When cells were grown to confluence, the cells received tumour necrosis factor (TNF)-α (20 U/ml for VCAM-1 expression, 100 U/ml for ELAM-1 expression) and cultured for 5 hr. After the cells were washed once with 199 medium, mouse anti-human VCAM-1 monoclonal antibody (2 μg/ml) or rat anti-human ELAM-1 monoclonal antibody (2 μg/ml) was added, and the cells were incubated for 1 hr at room temperature. After the cells were washed twice, peroxidase-conjugated anti-mouse immunoglobulin antibody or anti-rat immunoglobulin antibody was added, and the cells were incubated for 1 hr at room temperature. After the cells were washed 3 times, 2,2'-azino-bis(3-ethylbenzothiazolone-6-sulfonic acid) was added. After the plates were stood for 15 min at room temperature, absorbance at 405 nm with a reference wave length of 490 nm was measured with a 96-well microplate reader and was regarded as a indicator of VCAM-1 or ELAM-1 expression.

[1] = tested on: antigen induced Eosinophils accumulation into lungs; assay: Effect on antigen induced eosinophils accumulation into lungs in actively sensitized guinea pigs; assay type: in vivo, male Dunkin-Hartley guinea pigs; details: 30 mg/kg p.o., BALF 24 h after antigen exposure
Procedure: Effect on antigen induced Eosinophils accumulation into lungs in actively sensitized guinea pigs
Male Dunkin-Hartley guinea pigs (4W, Japan SLC, Inc.) were used throughout this study.
Sensitized animals were orally administered (p.o.) with compound or solvent (0.5% hydroxymethylcellulose) 30 min. before final sensitization, 30 min. before antigen exposure and 4.5 h after antigen exposure.
Egg albumin (EA, 10 μg) was added to AI(OH)3 (10 mg) in sterile physiological saline (0.5 ml) and mixed in a blender. This mixture was injected intraperitoneally into recipients. And after 14 days and 21 days, the procedure was repeated. Seven days after the final sensitization procedure, Mepyramine 10 mg/kg was injected intraperitoneally into the sensitized animals. After 30 min., the animals were exposed to aerosol of 1% EA in sterile physiological saline for 5 min.
24 h after antigen exposure, the animals were killed by exsanguination and tracheae were cannulated. And the lungs were lavaged three times with 10 ml of sterile physiological saline. Lavage fluid (BALF) was centrifuged (800 rpm for 10 min. at 4° C.) and the cell pellet was resuspended in 10 ml of sterile physilolgical saline and total cell numbers in BALF were counted in a hemocytometer (MEK 4200, Nihon-kohden, Ltd.). Differential cell counts were made from centrifuged preparations stained with May-Giemsa stain.

CD11b = assay: Effect on CD11b expression in human histiocytic leukemia cell line, U937 cells (PDB-induced); assay type: cell-based; details: U-937, 72 h, U937 cells, PDB 10 ng/ml, 3 days, read-out: Inhibitory effect on CD11b expression (IC50)
Procedure: Effect on CD11b expression human histiocytic leukemia cell line, U937 cells
Effect on the expression of CD11b antigen, which is the α chain of an adhesion molecule, Mac-1 expressing on the surface of leukocytgic cells, was investigated. U937 cells were suspended in RPMI1640 medium containing 20% fetal calf serum (FCS), plated with phorbol 12,13-dibutyrate (PDB, 10 ng/ml) into 96-well filtration plates, and cultured for 3 days at 37° C. in 5% CO2. After the cells were washed once with RPMI1640 medium, rat anti-human CD11b antibody (2 μg/ml) was added to each well and the plates were incubated for 1 hr on ice. After the cell were washed twice, peroxidase-conjugated anti-rat immunoglobulin antibody (1 μg/ml) was added, and the cells were incubated for 1 hr on ice. After the cells were washed 3 times, substrate for peroxidase (o-phenylenediamine) was added. After the plates were stood for 15 min at room temperature, absorbance at 490 nm was measured with a 96-well microplate reader and was regarded as a indicator of CD11b antigen expression.

## CNC(=O)C[C@@H]1N=C(c2ccc(Cl)cc2)c2c(sc(C)c2C)-n2c(C)nnc21 [Example 1, (S)-N-methyl-4-(4-chloro-phenyl)-2,3,9-trimethyl-6H-thieno[3,2-f][1,2,4]triazolo[4,3-a]-[1,4]diazepine-6-acetamide 1/4 hydrate]
VCAM-1
  IC50: 25 nM
[1]
  Number of eosinophils: 7.0 ± 1.4 × 10^6
CD11b
  IC50: 260 nM
